Results reported in article PMC11327196, “A phase 1 study to assess the absolute bioavailability, mass balance, pharmacokinetics, metabolism, and excretion of [^14C]-mobocertinib, an oral inhibitor of EGFR exon 20 insertion mutations, in healthy participants” (Investigational New Drugs, 2024).

Assay: Period 1 absolute bioavailability study: plasma PK after IV microdose of [14C]-mobocertinib
Assay type: in vivo, human
Procedure: This was a two-period, open-label, single-dose phase 1 study (NCT03811834) conducted at one clinical site (Celerion, Lincoln, Nebraska, USA) in healthy male participants. The primary objective of Period 1 was to determine the absolute bioavailability of mobocertinib following a single oral dose of 160 mg mobocertinib as capsules and a single intravenous (IV) microdose of 50 µg (~ 2 µCi) [^14C]-mobocertinib. The primary objectives of Period 2 were to (1) assess the cumulative excretion of total radioactivity in urine and feces (mass balance); (2) assess the metabolite profile of mobocertinib in plasma, urine, and feces; and (3) characterize the PK of mobocertinib, AP32960, and AP32914 in plasma, whole blood, and urine, and total radioactivity concentration equivalents in plasma and whole blood following a single oral dose of 160 mg (~ 100 µCi) [^14C]-mobocertinib as an oral solution. A sample size of 6 healthy males was selected without statistical considerations and deemed adequate to meet the study objectives. Furthermore, the sample size was limited based on clinical considerations for human ADME studies and to limit exposure to radioactivity.
On Day 1 of Period 1, following an overnight fast of at least 10 h, participants received a single 160 mg dose of non-radiolabeled mobocertinib as capsules. At 3.75 h post oral dosing (i.e., 15 min before the median oral tmax of ~ 4 h), participants received a nominal dose of 50 µg (~ 2 µCi) [^14C]-mobocertinib as a 15-minute IV infusion. However, due to nonspecific binding of [^14C]-mobocertinib to the dosing syringe and tubing, actual doses administered ranged from 36.8 to 38.7 µg (1.47 to 1.55 µCi). Participants were required to stay in the clinic from Day − 1 through at least the 96-hour blood draw (Day 5) or until a discharge criterion was met (i.e., ≥ 80% of the total administered radioactive dose was recovered in urine and fecal samples or excretion of radioactivity in urine and feces combined had declined to ≤ 1% of the total administered dose per day for ≥ 2 consecutive intervals), up to a maximum of 7 days postdose (Day 8). Blood samples for the measurement of plasma mobocertinib, AP32960, and AP32914 concentrations were collected predose and at 0.5, 1, 2, 3, 4, 5, 6, 8, 12, 24, 36, 48, 72, and 96 h after oral administration. Additional blood samples to determine [^14C]-total radioactivity, [^14C]-mobocertinib, [^14C]-AP32960, and [^14C]-AP32914 in plasma were collected at 3.75 h after oral dosing (i.e., predose for [^14C] assessments), at the end of the IV infusion, and at 10, 20, and 30 min, and 1, 2, 4, 8, 20, 32, 44, 68, and 92 h after the end of infusion. […] Urine and feces were collected before oral dosing (− 48–0 h); urine was collected over 0–3.75 h, 3.75–12 h and 12–24 h after oral dosing; feces were collected from 0 to 3.75 h and 3.75–24 h after oral dosing; both urine and feces were then collected over 24-hour intervals until a discharge criterion was met, or up to Day 8 (168 h postdose).
Plasma, whole blood, and urine samples were assayed for mobocertinib, AP32960, and AP32914 concentrations using liquid chromatography-tandem mass spectrometry (Q2 Solutions, Ithaca, New York, USA). The analytical range for each analyte was 0.250 to 500 ng/mL in whole blood and plasma, and 1.00 to 1000 ng/mL in urine. […] Urine and fecal samples were assayed for total radioactivity following the IV dose of [^14C]-mobocertinib in Period 1, and whole blood, plasma, urine, and fecal samples were assayed for total radioactivity following the oral dose of [^14C]-mobocertinib in Period 2 using liquid scintillation counting (LSC; Celerion, Lincoln, Nebraska, USA; LLOQs: Period 1 urine: 0.115–0.118 ng eq/g, feces: 0.720–0.759 ng eq/g; Period 2 whole blood: 87.3–112 ng eq/g, plasma: 116–132 ng eq/mL, urine: 37.8–46.8 ng eq/g, feces: 110–336 ng eq/g across participants). […]

[1] = Period 1, IV infusion 50 µg [14C]-mobocertinib, geometric mean (geometric CV%)
[2] = Period 1, IV infusion 50 µg [14C]-mobocertinib, normalized to a 160 mg dose, geometric mean (geometric CV%)

Question: With [^14C]-mobocertinib as the substance, how does the tmax (Period 1, 15-min IV infusion 50 µg (~2 µCi) [14C]-mobocertinib, median (range)) read?
Answer: 0.26 (0.26–1.25) h

Question: What about the “CL/F (after IV administration, values represent CL)” value [1] of the same substance?
Answer: 55.9 (30.0) L/h

Question: What about the “Vz/F (after IV administration, values represent Vz)” value [1] of the same substance?
Answer: 1791 (45.3) L

Question: And the t1/2z [1]?
Answer: 22.2 (41.3) h

Question: What about the “AUC∞” value [2] of the same substance?
Answer: 2864 (30.0) ng*h/mL

Question: What about the Cmax [2] of the same substance?
Answer: 624.9 (43.6) ng/mL
